Among the data in patent US9969749B2, “Inhibitors of IRAK4 activity” (MERCK SHARP & DOHME CORP., priority 2014, dated 2018) are IC50 values, retold here.

Sequence of IRAK4 (Q9NWZ3 whole entry): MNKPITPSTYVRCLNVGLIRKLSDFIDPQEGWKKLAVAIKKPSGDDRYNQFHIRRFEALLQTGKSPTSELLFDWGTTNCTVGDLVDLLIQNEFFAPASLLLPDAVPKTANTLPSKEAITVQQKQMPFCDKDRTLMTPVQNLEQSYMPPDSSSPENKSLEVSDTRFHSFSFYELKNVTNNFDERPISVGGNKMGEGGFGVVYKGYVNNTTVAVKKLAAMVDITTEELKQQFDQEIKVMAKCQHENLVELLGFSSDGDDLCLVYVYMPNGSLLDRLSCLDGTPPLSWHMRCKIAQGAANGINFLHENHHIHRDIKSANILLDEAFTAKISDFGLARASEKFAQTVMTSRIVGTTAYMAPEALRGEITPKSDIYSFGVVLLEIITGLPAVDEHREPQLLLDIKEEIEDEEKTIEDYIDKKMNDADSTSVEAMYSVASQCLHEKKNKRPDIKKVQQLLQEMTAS

In the test the target is IRAK4 (Homo sapiens (Human), UniProt Q9NWZ3). Kind of test: IRAK4 Kinase Assay (IMAP fluorescence polarization). The class given is biochemical. The note with it: 0.5 nM GST tagged IRAK4, 100 μM ATP, 100 nM fluorescent peptide substrate RP7030, 30 minutes at 25° C. As for the experimental part:
The kinase activity of IRAK4 is determined by its ability to catalyze the phosphorylation of a fluorescent polypeptide substrate. The extent of phosphorylation is measured using the IMAP technology (Molecular Devices) where the phosphorylated fluorescent substrate binds to the large M(III)-based nanoparticles which reduces the rotational speed of the substrate and thus increases its fluorescent polarization (FP).
20 μL reaction mixture contains 10 mM TriHCl, pH 7.2, 0.5 nM GST tagged IRAK4 (SignalChem), 100 nM fluorescent peptide substrate (RP7030, Molecular Devices), 100 μM ATP, 1 mM DDT, 1 mM MgCl2, and 0.01% Tween 20. The reaction is initiated by the addition of ATP. After incubation for 30 minutes at 25° C., 60 μL of Progressive IMAP Reagent (Molecular Devices) is added to stop the reaction. Change in RP7030's FP is determined by a FP reader (Analyst HT, LJL BioSystems).
(In general: Polarisation of emitted light reports the rotation of a fluorescent probe.)
Turning to `CNc1cncc(-c2ccc3ncnc(N[C@H]4CC[C@H](N5CCOCC5)CC4)c3c2)c1` [Example 1-81, 6-[5-(methylamino)pyridin-3-yl]-N-(trans-4-morpholin-4-ylcyclohexyl)quinazolin-4-amine], half-maximal inhibition (IC50) was put at 0.002 µM.

As to `Nc1cc(-c2ccc3ncnc(N[C@H]4CC[C@H](N5CCO[C@H](CF)C5)CC4)c3c2)cnc1F` [Example 5-23, 6-(5-amino-6-fluoropyridin-3-yl)-N-{trans-4-[(2S)-2-(fluoromethyl)morpholin-4-yl]cyclohexyl}quinazolin-4-amine], the half-inhibitory concentration (IC50) – broadly, the concentration at which inhibition is half-maximal – was 0.006 µM.

`CCn1cc(-c2ccc3ncnc(N[C@H]4CC[C@H](N(C)C)CC4)c3c2)cn1` [Example 1-18, trans-N′-[6-(1-ethyl-1H-pyrazol-4-yl)quinazolin-4-yl]-N,N-dimethylcyclohexane-1,4-diamine] had an IC50 of 0.092 µM.

Molecule `CN(C)[C@H]1CC[C@H](Nc2ncnc3ccc(-c4cnn(Cc5ccccn5)c4)cc23)CC1` [Example 1-17, trans-N,N-dimethyl-N′-{6-[1-(pyridin-2-ylmethyl)-1H-pyrazol-4-yl]quinazolin-4-yl}cyclohexane-1,4-diamine] registered an IC50 of 0.372 µM.

Regarding `CN(C)[C@H]1CC[C@H](Nc2ncnc3ccc(-c4ccncc4F)cc23)CC1` [Example 1-34, trans-N′-[6-(3-fluoropyridin-4-yl)quinazolin-4-yl]-N,N-dimethylcyclohexane-1,4-diamine], the IC50 worked out at 0.011 µM.

`Cn1cc(-c2ccc3ncnc(N[C@H]4CC[C@H](N(C)C)CC4)c3c2)cn1` [Example 1-9, trans-N,N-dimethyl-N′-[6-(1-methyl-1H-pyrazol-4-yl)quinazolin-4-yl]cyclohexane-1,4-diamine] showed an IC50 of 0.005 µM.

For the molecule `Clc1cncc(-c2ccc3ncnc(N[C@H]4CC[C@H](N5CCOCC5)CC4)c3c2)c1` [Example 1-99, 6-(5-chloropyridin-3-yl)-N-[trans-4-(morpholin-4-yl)cyclohexyl]quinazolin-4-amine], the IC50 is 0.011 µM.

`Oc1ncc(C(F)(F)F)cc1-c1ccc2ncnc(N[C@H]3CC[C@H](N4CCOCC4)CC3)c2c1` [Example 2-5, 3-{4-[(trans-4-morpholin-4-ylcyclohexyl)amino]quinazolin-6-yl}-5-(trifluoromethyl)pyridin-2-ol] showed an IC50 of 0.928 µM.

Regarding `FC(F)(F)c1cncc(-c2ccc3ncnc(N[C@H]4CC[C@H](N5CCOCC5)CC4)c3c2)c1` [Example 2-4, N-(trans-4-morpholin-4-ylcyclohexyl)-6-[5-(trifluoromethyl)pyridin-3-yl]quinazolin-4-amine], 0.119 µM corresponded to half-maximal inhibition (IC50).

With `c1nc(N[C@H]2CC[C@H](N3CCOCC3)CC2)c2cc(-c3cnoc3)ccc2n1` [Example 2-28, 6-(isoxazol-4-yl)-N-[trans-4-(morpholin-4-yl)cyclohexyl]quinazolin-4-amine], the concentration for half-maximal inhibition (IC50) was 0.002 µM.

Molecule `Cc1onc(-c2ccccc2)c1-c1ccc2ncnc(N[C@H]3CC[C@H](N(C)C)CC3)c2c1` [Example 1-26, trans-N,N-dimethyl-N′-[6-(5-methyl-3-phenylisoxazol-4-yl)quinazolin-4-yl]cyclohexane-1,4-diamine] gave an IC50 of 0.698 µM.

For the molecule `CN(C)[C@H]1CC[C@H](Nc2ncnc3ccc(-c4cnn(C5CCCCO5)c4)cc23)CC1` (stereo partly drawn) [Example 1-16, trans-N,N-dimethyl-N′-{6-[1-(tetrahydro-2H-pyran-2-yl)-1H-pyrazol-4-yl]quinazolin-4-yl}cyclohexane-1,4-diamine], half-maximal inhibition (IC50) required 0.217 µM.

Molecule `CN(C)C1CCC(Nc2ncnc3ccc(-c4ccccc4)cc23)CC1` (single isomer, unassigned) [Example 1-5, cis or trans-N,N-dimethyl-N′-(6-phenylquinazolin-4-yl)cyclohexane-1,4-diamine] came in with an IC50 of 0.019 µM.

`COC(=O)c1cncc(-c2ccc3ncnc(N[C@H]4CC[C@H](N(C)C)CC4)c3c2)c1` [Example 1-31, methyl 5-(4-{[trans-4-(dimethylamino)cyclohexyl]amino}quinazolin-6-yl)pyridine-3-carboxylate] came in with a half-inhibitory concentration (IC50) of 0.045 µM.
